Values quoted from earlier work, collected in patent publication US6599496B2, “Endoscopy tissue stain” (Chek-Med Systems, Inc., priority 1999, dated 2003).

Tested on: colon
Details: Hammond et al.

## CC1(C)C(/C=C/C=C/C=C/C=C2\N(CCCCS(=O)(=O)O)c3ccc4ccccc4c3C2(C)C)=[N+](CCCCS(=O)(=O)[O-])c2ccc3ccccc3c21 [Indocyanine green]
  permanence of the marking of lesions of the colon: does not have long term permanence
